Results from the supplement of paper PMC10307832.

Tests used:
Assay in all cases: relative viability (nuclei count vs DMSO), 5 days (fraction); higher = more cells survive
Alisertib + Pictilisib = compound: COc1cc(Nc2ncc3c(n2)-c2ccc(Cl)cc2C(c2c(F)cccc2OC)=NC3)ccc1C(=O)O [Alisertib] + CS(=O)(=O)N1CCN(Cc2cc3nc(-c4cccc5[nH]ncc45)nc(N4CCOCC4)c3s2)CC1 [Pictilisib] (partner 1 µM)
In short: (§1)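 Relative viability equals treated-well nuclei counts divided by vehicle-well nuclei counts. Counts came from 4× images of lung cancer cell lines grown in 1536-well plates for 5 days after pin-tool dosing on the day after seeding. Dosing used one drug alone or a fixed anchor-drug dose plus five library-drug doses (not always all listed) in √10 steps, and values are medians of duplicate plates.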

Alisertib + Phenformin = compound: COc1cc(Nc2ncc3c(n2)-c2ccc(Cl)cc2C(c2c(F)cccc2OC)=NC3)ccc1C(=O)O [Alisertib] + N=C(N)NC(=N)NCCc1ccccc1 [Phenformin] (partner 250 µM)
In short: as §1

Alisertib + Palbociclib = compound: COc1cc(Nc2ncc3c(n2)-c2ccc(Cl)cc2C(c2c(F)cccc2OC)=NC3)ccc1C(=O)O [Alisertib] + CC(=O)c1c(C)c2cnc(Nc3ccc(N4CCNCC4)cn3)nc2n(C2CCCC2)c1=O [Palbociclib] (partner 0.5 µM)
In short: as §1

Alisertib + Decitabine = compound: COc1cc(Nc2ncc3c(n2)-c2ccc(Cl)cc2C(c2c(F)cccc2OC)=NC3)ccc1C(=O)O [Alisertib] + Nc1ncn([C@H]2C[C@H](O)[C@@H](CO)O2)c(=O)n1 [Decitabine] (partner 2 µM)
In short: as §1

| Cell Line | relative viability (Alisertib + Pictilisib; first compound 0.005 µM) | relative viability (Alisertib + Pictilisib; first compound 0.01581 µM) | relative viability (Alisertib + Pictilisib; first compound 0.05 µM) | relative viability (Alisertib + Pictilisib; first compound 0.1581 µM) | relative viability (Alisertib + Pictilisib; first compound 0.5 µM) | relative viability (Alisertib + Phenformin; first compound 0.005 µM) | relative viability (Alisertib + Phenformin; first compound 0.01581 µM) | relative viability (Alisertib + Phenformin; first compound 0.05 µM) | relative viability (Alisertib + Phenformin; first compound 0.1581 µM) | relative viability (Alisertib + Phenformin; first compound 0.5 µM) | relative viability (Alisertib + Palbociclib; first compound 0.005 µM) | relative viability (Alisertib + Palbociclib; first compound 0.01581 µM) | relative viability (Alisertib + Palbociclib; first compound 0.05 µM) | relative viability (Alisertib + Palbociclib; first compound 0.1581 µM) | relative viability (Alisertib + Palbociclib; first compound 0.5 µM) | relative viability (Alisertib + Decitabine; first compound 0.005 µM) | relative viability (Alisertib + Decitabine; first compound 0.01581 µM) | relative viability (Alisertib + Decitabine; first compound 0.05 µM) | relative viability (Alisertib + Decitabine; first compound 0.1581 µM) | relative viability (Alisertib + Decitabine; first compound 0.5 µM) |
| --- | --- | --- | --- | --- | --- | --- | --- | --- | --- | --- | --- | --- | --- | --- | --- | --- | --- | --- | --- | --- |
| NCI-H1993 | 0.895 | 0.785 | 0.67 | 0.568 | 0.778 | 0.455 | 0.495 | 0.5 | 0.511 | 0.449 | 0.583 | 0.672 | 0.529 | 0.402 | 0.35 | 0.356 | 0.561 | 0.539 | 0.383 | 0.356 |
| PC-14 | 0.632 | 0.672 | 0.447 | 0.127 | 0.0567 | 0.481 | 0.453 | 0.363 | 0.0963 | 0.0647 | 0.526 | 0.45 | 0.332 | 0.082 | 0.0483 | 0.173 | 0.187 | 0.154 | 0.057 | 0.0492 |
| NCI-H1437 | 0.341 | 0.378 | 0.219 | 0.123 | 0.0875 | 0.236 | 0.286 | 0.251 | 0.142 | 0.118 | 0.241 | 0.289 | 0.217 | 0.172 | 0.144 | 0.5 | 0.519 | 0.439 | 0.27 | 0.209 |
| NCI-H2170 | 0.276 | 0.303 | 0.282 | 0.19 | 0.192 | 0.388 | 0.374 | 0.395 | 0.276 | 0.207 | 0.366 | 0.365 | 0.243 | 0.22 | 0.155 | 0.452 | 0.448 | 0.3 | 0.272 | 0.147 |
| NCI-H1648 | – | – | – | – | – | – | – | – | – | – | – | 0.265 | 0.22 | 0.258 | 0.239 | – | 0.478 | 0.405 | 0.279 | 0.247 |
| SW 900 | – | – | – | – | – | 0.434 | 0.589 | 0.442 | 0.18 | 0.141 | 0.461 | 0.475 | 0.303 | 0.245 | 0.227 | 0.419 | 0.377 | 0.296 | 0.213 | 0.255 |
| IA-LM | 0.332 | 0.25 | 0.201 | 0.142 | 0.0927 | – | – | – | – | – | – | – | – | – | – | – | – | – | – | – |
| NCI-H1563 | 0.646 | 0.608 | 0.606 | 0.717 | 0.296 | 0.664 | 0.643 | 0.674 | 0.724 | 0.539 | – | – | – | – | – | – | – | – | – | – |
| NCI-H596 | – | 0.412 | 0.433 | 0.214 | 0.242 | 0.675 | 0.875 | 0.759 | 0.822 | 0.393 | – | – | – | – | – | 1.07 | 1.01 | 1.01 | 0.708 | 0.505 |
| NCI-H522 | – | – | – | – | – | 0.521 | 0.56 | 0.75 | 0.419 | 0.493 | 0.877 | 1.14 | 0.975 | 0.76 | 0.519 | 0.69 | 0.686 | 0.558 | 0.443 | 0.408 |
| CAL-12T | 0.322 | 0.294 | 0.134 | 0.246 | 0.218 | 0.434 | 0.253 | 0.15 | 0.142 | 0.169 | 0.327 | 0.259 | 0.188 | 0.138 | 0.172 | – | – | – | – | – |
